# Assay: Effective amount of Amylase AD “Amano” 1 accelerating the conversion into aglycon isoflavones by diglycosidase
# Format: biochemical
# Conditions: Amylase AD “Amano” 1 at 0.005% (w/v) with diglycosidase 0.1% (w/v); roasted soy flour 30% (w/v), pH 5.0, 50° C., 3 hours
# Experimental: Roasted soy flour (manufactured by Fuji Shokuhin K.K.) was suspended into 0.1 M sodium acetate adjusted to pH 3.15, the substrate concentration was adjusted to 30% (w/v), and the pH of the solution to 5.0. The suspension was pre-incubated at 50° C. for 1 hour, whereby the temperature of the suspension was elevated to 50° C. To the suspension were added diglycosidase so as to be a final concentration of 0.1% (w/v) (0.3 AU) and Amylase AD “Amano” 1 (manufactured by Amano Enzyme Innc.) so as to be 0.1, 0.05, 0.01, 0.005, and 0.0001% (w/v). The whole was reacted at 50° C. for 3 hours and the change of isoflavone composition was analyzed by HPLC.
row,increase of isolated aglycon versus diglycosidase alone,Compound
1,1.2 fold,O=c1c(-c2ccc(O)cc2)coc2cc(O)ccc12 [daidzein]
2,1.20 fold,O=c1c(-c2ccc(O)cc2)coc2cc(O)cc(O)c12 [genistein]
3,1.23 fold,COc1cc2c(=O)c(-c3ccc(O)cc3)coc2cc1O [glycitein]

# Reference: US7118895B2, “Process for producing aglycon by using diglycosidase and flavor-improved food containing the aglycon and converting agent to be used in the process” (Amano Enzyme Inc., priority 2000, dated 2006)
